Target: hKCNQ5 (Homo sapiens, UniProt Q9NR82)
Sequence (Q9NR82 36-932): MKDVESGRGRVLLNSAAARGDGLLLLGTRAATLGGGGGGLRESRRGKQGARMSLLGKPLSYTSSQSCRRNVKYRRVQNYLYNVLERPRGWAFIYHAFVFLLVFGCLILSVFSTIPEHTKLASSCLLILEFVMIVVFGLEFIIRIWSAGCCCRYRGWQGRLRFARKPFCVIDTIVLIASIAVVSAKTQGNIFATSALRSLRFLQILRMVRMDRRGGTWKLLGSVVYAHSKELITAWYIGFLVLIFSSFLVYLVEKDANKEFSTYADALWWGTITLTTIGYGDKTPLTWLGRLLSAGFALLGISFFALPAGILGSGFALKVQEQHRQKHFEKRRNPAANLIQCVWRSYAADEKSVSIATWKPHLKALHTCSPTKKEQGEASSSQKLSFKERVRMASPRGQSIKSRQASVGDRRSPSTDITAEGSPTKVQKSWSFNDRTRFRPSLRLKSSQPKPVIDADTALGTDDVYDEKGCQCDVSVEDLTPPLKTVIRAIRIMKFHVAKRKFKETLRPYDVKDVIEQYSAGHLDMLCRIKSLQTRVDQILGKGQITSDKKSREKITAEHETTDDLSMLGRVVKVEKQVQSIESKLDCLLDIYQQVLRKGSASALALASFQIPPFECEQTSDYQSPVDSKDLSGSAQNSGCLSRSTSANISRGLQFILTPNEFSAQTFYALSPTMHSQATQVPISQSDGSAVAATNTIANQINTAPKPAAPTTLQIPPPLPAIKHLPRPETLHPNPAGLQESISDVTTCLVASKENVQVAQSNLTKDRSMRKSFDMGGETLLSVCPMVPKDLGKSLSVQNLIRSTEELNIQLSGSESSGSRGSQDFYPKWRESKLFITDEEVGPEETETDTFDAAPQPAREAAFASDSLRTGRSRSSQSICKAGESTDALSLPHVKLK
Method: Frog (Xenopus laevis) oocytes were prepared and injected using standard techniques; each oocyte was injected with approximately 50 nl of hKCNQ5 cRNA. Following injection, oocytes were maintained at 17° C. in ND96 medium comprising (in mM): NaCl, 90; KCl, 1.0; CaCl2, 1.0; MgCl2, 1.0; HEPES, 5.0; pH 7.5. Horse serum (5%) and penicillin/streptomycin (5%) were added to the incubation medium. Recording commenced 2-6 days following mRNA injection. Prior to the start of an experiment, oocytes were placed in a recording chamber and incubated in Modified Barth's Solution (MBS) consisting of (in mM): NaCl, 88; NaHCO3, 2.4; KCl, 1.0; HEPES, 10; MgSO4, 0.82; Ca(NO3)2, 0.33; CaCl2, 0.41; pH 7.5. Oocytes were impaled with electrodes (1-2 MΩ) and standard 2-electrode voltage clamp techniques were employed to record whole-cell membrane currents. Voltage-clamp protocols typically consisted of a series of voltage steps 1-5 second duration, in +10 mV steps from a holding potential of −90 mV to a maximal potential of +40 mV; records were digitized at 5 kHz and stored on a computer using pClamp data acquisition and analysis software (Axon Instruments).

Structure (SMILES): CC[N+](CC)(CC)CC [TEA, tetraethylammonium]
- resistance of hKCNQ5 currents to the potassium channel blocker (hKCNQ5 cRNA expressed in Xenopus oocytes, concentrations as high as 30 mM, whole-cell outward currents): largely resistant
- blockage of hKCNQ5 outward currents (FIG. 8 legend) (hKCNQ5 expressed in Xenopus oocytes, at high concentrations): resistant to blockage
